Results from ChEMBL document CHEMBL4765450, “The components and activities analysis of a novel anticoagulant candidate dHG-5” (Eur J Med Chem, 2020).
Calls of active or inactive are those of the source. The rule behind the calls is not given here.

Assays:
[1] = Tmax in Kunming mouse at 5.11 mg/kg, sc; assay type: ADME, organism-based; settings: in vivo
[2] = biological target: Prothrombin (Homo sapiens) (UniProt P00734); test: Inhibition of factor 2a (unknown origin) at IC50 preincubated for 1 min followed by chromogenic substrate addition and measured for 2 mins; settings: time 3.0 min
[3] = MRT (0 to infinity) in Kunming mouse at 1.7 mg/kg, sc; assay type: ADME, organism-based; settings: in vivo
Rattus norvegicus [4] = test: Antithrombotic activity in thromboplastin and stasis-induced Sprague-Dawley rat deep venous thrombosis model assessed as reduction in venous thrombosis administered subcutaneously 1 hr prior to thromboplastin addition for 20 secs followed by establishment of stasis for 20 mins; assay type: functional; settings: time 80.33 min
[5] = MRT (0 to 8 hrs) in Kunming mouse at 5.11 mg/kg, sc; assay type: ADME, organism-based; settings: in vivo
[6] = MRT (0 to infinity) in Kunming mouse at 15.3 mg/kg, sc; assay type: ADME, organism-based; settings: in vivo
Rattus norvegicus [7] = test: Antithrombotic activity in thromboplastin and stasis-induced Sprague-Dawley rat deep venous thrombosis model assessed as reduction in venous thrombosis at 2.7 mg/kg, sc administered 1 hr prior to thromboplastin addition for 20 secs followed by establishment of stasis for 20 mins; assay type: functional; design: scale not given: the % may be the effect or the level left; settings: time 80.33 min, 1.339 h
Mus musculus = test: Anticoagulation activity in Kunming mouse assessed as APTT-prolonging effect by measuring time for maximum effect at 1.7 mg/kg, sc measured after 0.5 to 8 hrs by APTT reagent based assay; assay type: functional; settings: time 0.5-8 hrs
[8] = MRT (0 to 8 hrs) in Kunming mouse at 15.3 mg/kg, sc; assay type: ADME, organism-based; settings: in vivo
Plasma = test: Anticoagulation activity in human plasma assessed as drug level causing 20 times doubling of APTT preincubated for 2 mins followed by APTT reagent and measured after 3 mins by coagulometric method; assay type: functional; settings: time 5 min
[9] = biological target: Coagulation factor XI (Homo sapiens) (UniProt P03951); test: Inhibition of factor 11a (unknown origin) at IC90 using S-2366 as substrate preincubated for 1 min followed by chromogenic substrate addition and measured for 2 mins in presence of AT-III; settings: time 3.0 min
Chain of Coagulation factor XI (Homo sapiens) (P03951 19-387 limits assumed): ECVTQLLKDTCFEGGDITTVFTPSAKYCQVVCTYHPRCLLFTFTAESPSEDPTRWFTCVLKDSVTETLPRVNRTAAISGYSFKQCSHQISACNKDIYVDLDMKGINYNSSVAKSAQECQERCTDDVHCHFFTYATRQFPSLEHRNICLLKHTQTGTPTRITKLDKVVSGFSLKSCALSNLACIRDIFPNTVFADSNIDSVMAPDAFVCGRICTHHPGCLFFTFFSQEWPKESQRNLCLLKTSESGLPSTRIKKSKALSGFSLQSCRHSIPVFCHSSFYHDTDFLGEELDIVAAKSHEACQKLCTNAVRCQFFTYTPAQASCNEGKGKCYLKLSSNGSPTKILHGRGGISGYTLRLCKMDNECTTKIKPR
Chain of Coagulation factor XI (Homo sapiens) (P03951 388-625 limits assumed): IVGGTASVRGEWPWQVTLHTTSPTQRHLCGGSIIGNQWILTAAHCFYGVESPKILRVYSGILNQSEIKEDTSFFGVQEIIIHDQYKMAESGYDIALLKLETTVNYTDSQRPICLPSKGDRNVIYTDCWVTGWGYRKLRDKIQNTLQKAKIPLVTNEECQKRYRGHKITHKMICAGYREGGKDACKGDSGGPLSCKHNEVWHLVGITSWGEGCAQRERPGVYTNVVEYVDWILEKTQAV

Tmax [1]: 0.75 h
inhibition [2]: inactive
MRT inf [3]: 2.21 h
MRT last [5]: 1.52 h
MRT inf [6]: 1.71 h
MRT last [8]: 1.66 h
inhibition [9]: Active
Structure (SMILES): CC(=O)N[C@H]1[C@H](O[C@H]2[C@H](O[C@@H]3O[C@@H](C)[C@@H](OS(=O)(=O)[O-])[C@@H](O)[C@@H]3OS(=O)(=O)O)[C@@H](O)[C@H](O[C@H]3[C@@H](NC(C)=O)[C@H](O[C@H]4[C@H](O[C@@H]5O[C@@H](C)[C@@H](OS(=O)(=O)[O-])[C@@H](O)[C@@H]5OS(=O)(=O)O)[C@@H](O)[C@H](O[C@H]5[C@@H](NC(C)=O)[C@H](O[C@H]6[C@H](O[C@@H]7O[C@@H](C)[C@@H](OS(=O)(=O)[O-])[C@@H](O)[C@@H]7OS(=O)(=O)O)[C@@H](O)[C@H](O[C@H]7[C@@H](NC(C)=O)[C@H](O[C@H]8[C@H](O[C@@H]9O[C@@H](C)[C@@H](OS(=O)(=O)[O-])[C@@H](O)[C@@H]9OS(=O)(=O)O)[C@@H](O)[C@H](O[C@H]9[C@@H](NC(C)=O)[C@H](O[C@@H]([C@H](O[C@@H]%10O[C@@H](C)[C@@H](OS(=O)(=O)[O-])[C@@H](O)[C@@H]%10OS(=O)(=O)O)[C@@H](O)CO)[C@H](O)C(=O)[O-])O[C@H](COS(=O)(=O)[O-])[C@@H]9OS(=O)(=O)[O-])O[C@@H]8C(=O)[O-])O[C@H](COS(=O)(=O)[O-])[C@@H]7OS(=O)(=O)[O-])O[C@@H]6C(=O)[O-])O[C@H](COS(=O)(=O)[O-])[C@@H]5OS(=O)(=O)[O-])O[C@@H]4C(=O)[O-])O[C@H](COS(=O)(=O)[O-])[C@@H]3OS(=O)(=O)[O-])O[C@@H]2C(=O)[O-])O[C@H](COS(=O)(=O)[O-])[C@H](OS(=O)(=O)[O-])[C@@H]1O[C@@H]1OC(C(=O)[O-])=C[C@H](O[C@@H]2O[C@@H](C)[C@@H](OS(=O)(=O)[O-])[C@@H](O)[C@@H]2OS(=O)(=O)O)[C@H]1O.[Na+].[Na+].[Na+].[Na+].[Na+].[Na+].[Na+].[Na+].[Na+].[Na+].[Na+].[Na+].[Na+].[Na+].[Na+].[Na+].[Na+].[Na+].[Na+].[Na+].[Na+].[Na+]
ED50 (Rattus norvegicus [4]; sc, 1.339 h): 2.38 mg/kg
Activity (Rattus norvegicus [4]): Dose-dependent effect
Activity (Rattus norvegicus [7]): 60.7%
Emax (Mus musculus): 4.39 s
EC (Plasma): 1.79 µM
